Measured values as given in patent US20110144160A1, “Antagonists of Prostaglandin D2 Receptors” (Amira Pharmaceuticals, Inc., priority 2008, published 2011).

Columns and labels:
human DP2 receptor = target: T1, human DP2 receptor (Homo sapiens, UniProt Q9Y5Y4); experiment: DP2/CRTH2 binding assay ([3H]PGD2 radioligand); details: membranes of HEK293 cells expressing recombinant human DP2, 1 nM [3H]PGD2; read-out: hDP2
T1 construct: expressed in transfected cells
T1 sequence (Q9Y5Y4 1-395): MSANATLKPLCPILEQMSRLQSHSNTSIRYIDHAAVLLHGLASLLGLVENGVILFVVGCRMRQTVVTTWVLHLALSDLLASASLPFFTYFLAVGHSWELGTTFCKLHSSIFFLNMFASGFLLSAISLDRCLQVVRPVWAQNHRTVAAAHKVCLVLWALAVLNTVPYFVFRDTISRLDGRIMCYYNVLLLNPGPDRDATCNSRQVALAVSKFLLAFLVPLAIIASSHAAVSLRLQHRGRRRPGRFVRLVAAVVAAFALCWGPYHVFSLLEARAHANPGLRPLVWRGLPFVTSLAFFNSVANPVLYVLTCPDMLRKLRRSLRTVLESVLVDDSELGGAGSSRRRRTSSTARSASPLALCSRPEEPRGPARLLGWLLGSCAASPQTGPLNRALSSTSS
Description: The ability of a compound to bind to the human DP2 receptor is assessed via a radioligand binding assay using [^3H]PGD2. HEK293 cells stably expressing recombinant human DP2 are resuspended in 10 mM Hepes, 7.4 containing 1 mM DTT, lysed and centrifuged at 75,000×g to pellet the membranes. The membranes are resuspended in 10 mM Hepes, 7.4 containing 1 mM DTT and 10% glycerol to approximately 5 mg protein/ml. Membranes (2-10 μg protein/well) are incubated in 96-well plates with 1 nM [^3H]PGD2 and test compound in Assay Buffer (50 mM Hepes, 10 mM MnCl2, 1 mM EDTA, plus or minus 0.2% human serum albumin, pH 7.4) for 60 minutes at room temperature. The reactions are terminated by rapid filtration through Whatman GF/C glass fibre filter plates. The filter plates were pre-soaked in 0.33% polythylenimine for 30 minutes at room temperature then washed in Wash Buffer (50 mM Hepes, 0.5 M NaCl pH 7.4) prior to harvesting. After harvesting, the filter plates are washed 3 times with 1 ml cold Wash Buffer then dried. Scintillant is then added to the plates and the radioactivity retained on the filters is determined on a Packard TopCount (Perkin Elmer). Specific binding is determined as total radioactive binding minus non-specific binding in the presence of 10 μM PGD2. IC50s were determined using GraphPad prism analysis of drug titration curves.

human DP1 receptor = target: T2, human DP1 receptor (Homo sapiens, UniProt Q13258); experiment: DP1 binding assay ([3H]BWA868C radioligand); details: human platelet membranes, 2 nM [3H]BWA868C; read-out: hDP1
T2 construct: tissue Biological Specialty Corporation; host or cells: human platelets, membrane preparation
T2 sequence (Q13258 1-359): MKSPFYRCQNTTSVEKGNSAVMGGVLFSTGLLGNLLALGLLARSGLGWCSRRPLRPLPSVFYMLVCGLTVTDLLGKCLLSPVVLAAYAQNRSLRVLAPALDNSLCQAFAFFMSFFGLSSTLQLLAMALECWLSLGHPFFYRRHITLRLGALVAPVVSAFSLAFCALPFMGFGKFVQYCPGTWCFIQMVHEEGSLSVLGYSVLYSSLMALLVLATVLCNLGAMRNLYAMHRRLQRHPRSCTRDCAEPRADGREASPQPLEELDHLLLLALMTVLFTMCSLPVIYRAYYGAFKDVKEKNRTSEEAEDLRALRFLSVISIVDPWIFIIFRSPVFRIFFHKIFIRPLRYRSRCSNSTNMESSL
Description: The ability of a compound to bind to the human DP1 receptor was evaluated via a radioligand membrane binding assay using the DP1 selective synthetic ligand [^3H]BWA868C. Packed human platelets (Biological Specialty Corporation), were resuspended in 6 volumes of Hepes/HBSS buffer (10 mM Hepes, 1 mM DTT in Hanks Balanced Salt Solution (HBSS), lysed and centrifuged at 75,000×g to pellet the membranes. Membranes were resuspended in Hepes/HBSS buffer to approximately 12 mg protein/ml. Membranes (20 μg protein/well) are incubated in 96-well plates with 2 nM [^3H]BWA868C and test compound in Assay Buffer (50 mM Hepes, 10 mM MnCl2, 1 mM EDTA, plus or minus 0.2% human serum albumin, pH 7.4) for 60 minutes at room temperature. The reactions are terminated by rapid filtration through Whatman GF/C glass fibre filter plates. The filter plates were pre-soaked in 0.33% polethylenimine for 30 minutes at room temperature then washed in Wash Buffer (50 mM Hepes, 0.5 M NaCl pH 7.4) prior to harvesting. After harvesting, the filter plates are washed 3 times with 1 ml cold Wash Buffer then dried. Scintillant is then added to the plates and the radioactivity retained on the filters is determined on a Packard TopCount (Perkin Elmer). Specific binding is determined as total radioactive binding minus non-specific binding in the presence of 10 μM BW A868C. IC50s were determined using GraphPad prism analysis of drug titration curves.

Row | Compound | IC50 (human DP2 receptor) [nM] | IC50 (human DP1 receptor) [nM]
1 | COc1ccc(CC(=O)O)cc1Oc1ccc(NC(=O)c2cccc(F)c2)cc1CSC(C)(C)C [Compound 62, {3-[2-tert-Butylsulfanylmethyl-4-(3-fluoro-benzoylamino)-phenoxy]-4-methoxy-phenyl}-acetic acid] | < 300 | < 300
2 | COc1ccc(CC(=O)O)cc1Oc1ccc(NC(=O)c2cc(Cl)cc(Cl)c2)cc1CSC(C)(C)C [Compound 66, {3-[2-tert-Butylsulfanylmethyl-4-(3,5-dichloro-benzoylamino)-phenoxy]-4-methoxy-phenyl}-acetic acid] | < 300 | < 300
3 | COc1ccc(CC(=O)O)cc1Oc1ccc(NC(=O)C(C)(C)C)cc1C[S+]([O-])C(C)(C)C (centres unmarked) [Compound 73, {3-[4-(2,2-Dimethyl-propionylamino)-2-(2-methyl-propane-2-sulfinylmethyl)-phenoxy]-4-methoxy-phenyl}-acetic acid] | < 300 | < 300
4 | CC(C)(C)SCc1cc(NC(=O)C(C)(C)C)ccc1Oc1cc(Cl)cc(CC(=O)O)c1 [Compound 47, {3-[2-tert-Butylsulfanylmethyl-4-(2,2-dimethyl-propionylamino)-phenoxy]-5-chloro-phenyl}-acetic acid] | < 300 | –
5 | COc1ccc(CC(=O)O)cc1Oc1ccc(C(=O)NCC(C)(C)C)cc1CSC(C)(C)C [Compound 46, {3-[2-tert-butylsulfanylmethyl-4-(2,2-dimethyl-propylcarbamoyl)-phenoxy]-4-methoxy-phenyl}-acetic acid] | 300 to 1000 | –
6 | COc1ccc(CC(=O)O)cc1Oc1ccc(NC(=O)c2ccc(Cl)cc2)cc1CSC(C)C [Compound 20, {3-[4-(4-Chloro-benzoylamino)-2-isopropylsulfanylmethyl-phenoxy]-4-methoxy-phenyl}-acetic acid] | < 300 | –
7 | COc1ccc(CC(=O)O)cc1Oc1ccc(C(=O)NCCc2ccc(F)cc2)cc1CSC(C)C [Compound 27, (3-{4-[2-(4-Fluoro-phenyl)-ethylcarbamoyl]-2-isopropylsulfanylmethyl-phenoxy}-4-methoxy-phenyl)-acetic acid] | < 300 | –
8 | COc1ccc(CC(=O)O)cc1Oc1ccc(NC(=O)CC(C)(C)C)cc1CSC(C)(C)C [Compound 37, {3-[2-tert-Butylsulfanylmethyl-4-(3,3-dimethyl-butyrylamino)-phenoxy]-4-methoxy-phenyl}-acetic acid] | < 300 | –
9 | CC(C)SCc1cc(NC(=O)C(C)(C)C)ccc1Oc1cc(CC(=O)O)ccc1Cl [Compound 52, {4-Chloro-3-[4-(2,2-dimethyl-propionylamino)-2-isopropylsulfanylmethyl-phenoxy]-phenyl}-acetic acid] | < 300 | –
10 | COc1ccc(CC(=O)O)cc1Oc1ccc(N(C)C(=O)C(C)(C)C)cc1CSCC(F)(F)F [Compound 34, {3-[4-[(2,2-Dimethyl-propionyl)-methyl-amino]-2-(2,2,2-trifluoro-ethylsulfanylmethyl)-phenoxy]-4-methoxy-phenyl}-acetic acid] | < 300 | –
11 | Cc1ccc(CC(=O)O)cc1Oc1ccc(NC(=O)C(C)(C)C)cc1CSCC(F)(F)F [Compound 51, {3-[4-(2,2-Dimethyl-propionylamino)-2-(2,2,2-trifluoro-ethylsulfanylmethyl)-phenoxy]-4-methyl-phenyl}-acetic acid] | < 300 | –
12 | C=Cc1ccc(CC(=O)O)cc1Oc1ccc(NC(=O)C(C)(C)C)cc1CSCC(F)(F)F [Compound 55, {3-[4-(2,2-Dimethyl-propionylamino)-2-(2,2,2-trifluoro-ethylsulfanylmethyl)-phenoxy]-4-vinyl-phenyl}-acetic acid] | < 300 | –
13 | COc1ccc(CC(=O)O)cc1Oc1ccc(NC(=O)CC(C)(C)C)cc1CSCC(F)(F)F [Compound 16, {3-[4-(3,3-Dimethyl-butyrylamino)-2-(2,2,2-trifluoro-ethylsulfanylmethyl)-phenoxy]-4-methoxy-phenyl}-acetic acid] | < 300 | –
14 | COc1ccc(CC(=O)O)cc1Oc1ccc(C(=O)NCC(=O)c2ccccc2)cc1CSC(C)(C)C [Compound 40, {3-[2-tert-butylsulfanylmethyl-4-(2-oxo-2-phenyl-ethylcarbamoyl)-phenoxy]-4-methoxy-phenyl}-acetic acid] | < 300 | –
15 | CC(C)(C)C(=O)Nc1ccc(Oc2cc(CC(=O)O)ccc2OC(F)F)c(CS(=O)(=O)CC(F)(F)F)c1 [Compound 50, {4-Difluoromethoxy-3-[4-(2,2-dimethyl-propionylamino)-2-(trifluoro-ethanesulfonylmethyl)-phenoxy]-phenyl}-acetic acid] | < 300 | –
16 | COc1ccc(CC(=O)O)cc1Oc1ccc(C(=O)NC(C)(C)Cc2ccc(F)cc2)cc1CSC(C)(C)C [Compound 41, (3-{2-tert-butylsulfanylmethyl-4-[2-(4-fluoro-phenyl)-1,1-dimethyl-ethylcarbamoyl]-phenoxy}-4-methoxy-phenyl)-acetic acid] | < 300 | –
17 | COc1ccc(CC(=O)O)cc1Oc1ccc(C(=O)NCC(F)(F)F)cc1CSC(C)(C)C [Compound 44, {3-[2-tert-butylsulfanylmethyl-4-(2,2,2-trifluoro-ethylcarbamoyl)-phenoxy]-4-methoxy-phenyl}-acetic acid] | < 300 | –
18 | COc1ccc(CC(=O)O)cc1Oc1ccc(NC(=O)c2ccc(Cl)cc2)cc1C[S+]([O-])c1ccccc1 (centres unmarked) [Compound 23, {3-[2-Benzenesulfinylmethyl-4-(4-chloro-benzoylamino)-phenoxy]-4-methoxy-phenyl}-acetic acid] | < 300 | –
19 | COc1ccc(CC(=O)O)cc1Oc1ccc(C(=O)NCc2ccc(Cl)cc2)cc1CSC(C)C [Compound 26, {3-[4-(4-Chloro-benzylcarbamoyl)-2-isopropylsulfanylmethyl-phenoxy]-4-methoxy-phenyl}-acetic acid] | < 300 | –
20 | COc1ccc(CC(=O)O)cc1Oc1ccc(C(=O)N2CCCCC2)cc1CSC(C)(C)C [Compound 42, {3-[2-tert-butylsulfanylmethyl-4-(piperidine-1-carbonyl)-phenoxy]-4-methoxy-phenyl}-acetic acid] | > 1000 | –
21 | COc1ccc(CC(=O)O)cc1Oc1ccc(NC(=O)C(C)(C)C)cc1CS(=O)(=O)CC(F)(F)F [Compound 12, {3-[4-(2,2-Dimethyl-propionylamino)-2-(trifluoro-ethanesulfonylmethyl)-phenoxy]-4-methoxy-phenyl}-acetic acid] | < 300 | –
22 | COc1ccc(CC(=O)O)cc1Oc1ccc(NC(=O)C2CC2)cc1CSCC(F)(F)F [Compound 14, {3-[4-(Cyclopropanecarbonyl-amino)-2-(2,2,2-trifluoro-ethylsulfanylmethyl)-phenoxy]-4-methoxy-phenyl}-acetic acid] | < 300 | –
23 | COc1ccc(CC(=O)O)cc1Oc1ccc(NC(=O)NCc2ccccc2)cc1CSc1ccc(Cl)cc1 [Compound 6, {3-[4-(3-benzyl-ureido)-2-(4-chloro-phenylsulfanylmethyl)-phenoxy]-4-methoxy-phenyl}-acetic acid] | < 300 | –
